Results from US11760775B2, “Steroids and protein-conjugates thereof” (Regeneron Pharmaceuticals, Inc., priority 2016, dated 2023).
Structures can show the parent of a compound that is named as a salt. Where two headings read alike, the source gives them in different places.

Assays:
[1] = target: Glucocorticoid Receptor (GR) (Homo sapiens (Human), UniProt P04150); assay: LanthaScreen TR-FRET GR Competitive Binding Assay (cell free)
[2] = tested on: GR activation in 293/PRLR/GRE-Luc cells (HEK293/9xUAS-Luc2P/pBind-GR/PRLR-HA high cells); assay: GR co-activator luciferase reporter cell based assay in 293/PRLR/GRE-Luc cells; set-up: species or system human; conditions: for Emax: HEK293, read-out: Activation (fold activation relative to Budesonide) in HEK293/9xUAS-Luc2P/pBind-GR/PRLR-HA high cells; for HEK293/9xUAS-Luc2P/pBind-GR/PRLR-HA high cells activation relative to Budesonide: fold activation vs Budesonide
Source text: Bioassays described herein were used to assess the efficacy of free steroids and anti-PRLR-ncADCs. In one example, the bioassay assessed the activity of steroids, after internalization of a site-specific anti-PRLR-GC steroid ADC into cells, to bind to pBIND-GR and subsequent luciferase reporter activation. […] Then such stable cell line was further transfected with a chimeric receptor consisting of a GR ligand binding domain fused to the yeast Gal4 DNA binding domain (pBind-GR, Promega Cat #E1581), and a Gal4 upstream activator sequence (9×Gal4UAS-Luc2P) that drives luciferase gene expression.
(§1) For this assay, 20,000 cells were seeded in 96-well plates in media containing DMEM supplemented with 10% FBS and pencillin/streptomycin (complete media) and grown overnight at 37° C. in 5% CO2. […] Luciferase activity was determined by addition of OneGlo™ reagent (Promega, Cat #E6130) and relative light units (RLUs) were measured on a Victor luminometer (Perkin Elmer). The EC50 values were determined from a four-parameter logistic equation over a 10 point response curve using GraphPad Prism.
as §1, with “One-Glo™” for “OneGlo™”, “10-point” for “10 point”, “Prism. […] Minimal activation in this assay is defined as less than 10% of the maximal activation measured with the free payload.” for “Prism.”

[3] = Homo sapiens, 72 hours of incubation
[4] = Homo sapiens, HEK293, 72 hours of incubation, read-out: HEK293/9xUAS-Luc2P/pBind-GR/PRLR-HA high cells EC50
[5] = 293/PRLR/GRE-Luc cells, 72 hours
[6] = Homo sapiens, HEK293, read-out: HEK293/9xUAS-Luc2P/pBind-GR/PRLR-HA high cells EC50

Sequence of Glucocorticoid Receptor (GR) (P04150 524-758): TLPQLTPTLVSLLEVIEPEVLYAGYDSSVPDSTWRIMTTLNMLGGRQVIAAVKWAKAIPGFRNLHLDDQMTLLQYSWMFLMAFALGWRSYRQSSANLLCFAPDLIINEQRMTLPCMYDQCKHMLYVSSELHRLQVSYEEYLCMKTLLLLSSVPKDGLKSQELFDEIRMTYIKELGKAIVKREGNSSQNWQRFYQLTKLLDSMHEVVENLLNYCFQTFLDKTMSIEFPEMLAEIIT

Compound | IC50 [1] [nM] | Emax [2, 3] [%] | EC50 [2, 4] [nM] | other results
C[C@]12C=CC(=O)C=C1CC[C@@H]1[C@@H]2[C@@H](O)C[C@@]2(C)[C@H]1C[C@H]1O[C@@H](c3ccc(N)cc3)O[C@]12C(=O)CO [7-1 R, (1S,2S,4R,6R,8S,9S,11S,12S,13R)-6-(4-Aminophenyl)-11-hydroxy-8-(2-hydroxyacetyl)-9,13-dimethyl-5,7-dioxapentacyclo[10.8.0.0^2,90.0^4,80.0^13,18]icosa-14,17-dien-16-one] | 10 to 100 | > 75 | < 10 | –
C[C@]12C=CC(=O)C=C1CC[C@@H]1[C@@H]2[C@@H](O)C[C@@]2(C)[C@H]1C[C@H]1O[C@H](c3ccc(N)cc3)O[C@]12C(=O)CO [7-1 S, (1S,2S,4R,6S,8S,9S,11S,12S,13R)-6-(4 Aminophenyl)-11-hydroxy-8-(2-hydroxyacetyl)-9,13-dimethyl-5,7-dioxapentacyclo[10.8.0.0^2,90.0^4,80.0^13,18]icosa-14,17-dien-16-one] | < 10 | 20 to 75 | > 100 | –
C[C@]12C=CC(=O)C=C1CC[C@@H]1[C@@H]2[C@@H](O)C[C@@]2(C)[C@H]1C[C@H]1OC(Cc3ccc(N)cc3)O[C@]12C(=O)CO (stereo partly drawn) [7-2 R/S, (1S,2S,4R,8S,9S,11S,12S,13R)-6[(4-Aminophenyl)methyl]-11-hydroxy-8-(2-hydroxyacetyl)-9,13-dimethyl-5,7-dioxapentacyclo[10.8.0.0^2,90.0^4,80.0^13,18]icosa-14,17-dien-16-one] | < 10 | < 20 | < 10 | Fold Activation [2, 5]: Full; EC50 ([2]; Homo sapiens, HEK293, 72 h, read-out: EC50): 10 to 100 nM
CC(C)C(=O)OCC(=O)[C@@]12O[C@H](c3ccc(N)cc3)O[C@@H]1C[C@H]1[C@@H]3CCC4=CC(=O)C=C[C@]4(C)[C@H]3[C@@H](O)C[C@@]12C [8-1 R, 2[(1S,2S,4R,8S,9S,11S,12S,13R)-6-(4-Aminophenyl)-11-hydroxy-9,13-dimethyl-16-oxo-5,7-dioxapentacyclo[10.8.0.0^2,90.0^4,80.0^13,18]icosa-14,17-dien-8-yl]-2-oxoethyl 2-methylpropanoate] | – | – | 10 to 100 | Activation (fold activation relative to Budesonide) in HEK293/9xUAS-Luc2P/pBind-GR/PRLR-HA high cells ([2]; 72 hours of incubation): full activation
CC(C)C(=O)OCC(=O)[C@@]12OC(Cc3ccc(N)cc3)O[C@@H]1C[C@H]1[C@@H]3CCC4=CC(=O)C=C[C@]4(C)[C@H]3[C@@H](O)C[C@@]12C (stereo partly drawn) [8-2 R/S, 2[(1S,2S,4R,8S,9S,11S,12S,13R)-6[(4-Aminophenyl)methyl]-11-hydroxy-9,13-dimethyl-16-oxo-5,7-dioxapentacyclo[10.8.0.0^2,90.0^4,80.0^13,18]icosa-14,17-dien-8-yl]-2-oxoethyl 2-methylpropanoate] | < 10 | < 20 | > 100 | –
CC(C)C(=O)OCC(=O)[C@@]12OC(CCN)O[C@@H]1C[C@H]1[C@@H]3CCC4=CC(=O)C=C[C@]4(C)[C@H]3[C@@H](O)C[C@@]12C (stereo partly drawn) [8-3 R/S, 2[(1S,2S,4R,8S,9S,11S,12S,13R)-6-(2-Aminoethyl)-11-hydroxy-9,13-dimethyl-16-oxo-5,7-dioxapentacyclo[10.8.0.0^2,90.0^4,8. 0^13,18]icosa-14,17-dien-8-yl]-2-oxoethyl 2-methylpropanoate] | < 10 | < 20 | > 100 | –
CCCC1O[C@@H]2C[C@H]3[C@@H]4CCC5=CC(=O)C=C[C@]5(C)[C@H]4[C@@H](O)C[C@]3(C)[C@]2(C(=O)CN)O1 (stereo partly drawn) [11-1 R/S, (1S,2S,4R,8S,9S,11S,12S,13R)-8-(2-Aminoacetyl)-11-hydroxy-9,13-dimethyl-6-propyl-5,7-dioxapentacyclo[10.8.0.0^2,9. 0^4,80.0^13,18]icosa-14,17-dien-16-one] | 10 to 100 | > 75 | < 10 | –
CCCC1O[C@@H]2C[C@H]3[C@@H]4CCC5=CC(=O)C=C[C@]5(C)[C@H]4[C@@H](O)C[C@]3(C)[C@]2(C(=O)CNC)O1 (stereo partly drawn) [11-2 R/S, (1S,2S,4R,8S,9S,11S,12S,13R)-11-hydroxy-9,13-dimethyl-8-[2-(methylamino)acetyl]-6-propyl-5,7-dioxapentacyclo[10.8.0.0^2,90.0^4,80.0^13,18]icosa-14,17-dien-16-one] | 10 to 100 | > 75 | > 100 | –
CCCC1O[C@@H]2C[C@H]3[C@@H]4CCC5=CC(=O)C=C[C@]5(C)[C@H]4[C@@H](O)C[C@]3(C)[C@]2(C(=O)CN(C)C)O1 (stereo partly drawn) [11-3 R/S, (1S,2S,4R,8S,9S,11S,12S,13R)-8-[2-(Dimethylamino)acetyl]-11-hydroxy-9,13-dimethyl-6-propyl-5,7-dioxapentacyclo[10.8.0.0^2,90.0^4,80.0^13,18]icosa-14,17-dien-16-one] | < 10 | 20 to 75 | 10 to 100 | –
CCC[C@@H]1O[C@@H]2C[C@H]3[C@@H]4CCC5=CC(=O)C=C[C@]5(C)[C@H]4[C@@H](O)C[C@]3(C)[C@]2(C(=O)COc2ccc(N)cc2)O1 [11-5 R, (1S,2S,4R,8S,9S,11S,12S,13R)-8-[2-(4-Aminophenoxy)acetyl]-11-hydroxy-9,13-dimethyl-6-propyl-5,7-dioxapentacyclo[10.8.0.0^2,90.0^4,80.0^13,18]icosa-14,17-dien-16-one] | 10 to 100 | > 75 | < 10 | –
CCCC1O[C@@H]2C[C@H]3[C@@H]4CCC5=CC(=O)C=C[C@]5(C)[C@H]4[C@@H](O)C[C@]3(C)[C@]2(C(=O)COc2ccc(N)cc2)O1 (stereo partly drawn) [11-5 R/S, (1S,2S,4R,8S,9S,11S,12S,13R)-8-[2-(4-Aminophenoxy)acetyl]-11-hydroxy-9,13-dimethyl-6-propyl-5,7-dioxapentacyclo[10.8.00^2,90.0^4,80.0^13,18]icosa-14,17-dien-16-one] | 10 to 100 | > 75 | < 10 | –
CCCC1O[C@@H]2C[C@H]3[C@@H]4C[C@H](F)C5=CC(=O)C=C[C@]5(C)[C@@]4(F)[C@@H](O)C[C@]3(C)[C@]2(C(=O)CNc2ccc(N)cc2)O1 (stereo partly drawn) [Compound 5-I, (1S,2S,4R,8S,9S,11S,12R,13S,19S)-8-{2-[(4-Aminophenyl)amino]acetyl}-12,19-difluoro-11-hydroxy-9,13-dimethyl-6-propyl-5,7-dioxapentacyclo[10.8.0.0^2,90.0^4,80.0^13,18]icosa-14,17-dien-16-one Trifluoroacetate] | – | – | – | EC50 [2, 6]: < 10 nM; HEK293/9xUAS-Luc2P/pBind-GR/PRLR-HA high cells activation relative to Budesonide [2]: Full
CCCC1O[C@@H]2C[C@H]3[C@@H]4C[C@H](F)C5=CC(=O)C=C[C@]5(C)[C@@]4(F)[C@@H](O)C[C@]3(C)[C@]2(C(=O)COc2ccc(N)c(F)c2)O1 (stereo partly drawn) [Compound 6-III, (1S,2S,4R,8S,9S,11S,12R,13S,19S)-8-[2-(4-Amino-3-fluorophenoxy)acetyl]-12,19-difluoro-11-hydroxy-9,13-dimethyl-6-propyl-5,7-dioxapentacyclo[10.8.0.0^2,90.0^4,8.0^13,18]icosa-14,17-dien-16-one] | – | – | – | EC50 [2, 6]: < 10 nM
C[C@]12C=CC(=O)C=C1CC[C@@H]1[C@@H]2[C@@H](O)C[C@@]2(C)[C@H]1C[C@H]1O[C@@H](c3ccc(N)cc3)O[C@]12C(=O)CO [Compound 7-1R] | – | – | – | GRE-Luc activation [2, 5]: full GRE-Luc activation; EC50 ([2]; 293/PRLR/GRE-Luc cells, 72 hours, read-out: EC50 of GRE-Luc activation): 10 to 100 nM
CC(=O)OCC(=O)[C@@]1(OC(C)=O)[C@@H](C)C[C@H]2[C@@H]3C[C@H](F)C4=CC(=O)C=C[C@]4(C)[C@@]3(F)[C@@H](O)C[C@@]21C [Diflorasone, diflorasone, reference compound] | – | > 75 | < 10 | –
C[C@@H]1C[C@H]2[C@@H]3CCC4=CC(=O)C=C[C@]4(C)[C@@]3(F)[C@@H](O)C[C@]2(C)[C@@]1(O)C(=O)CO [compound 1c, dexamethasone, reference compound] | – | – | – | EC50 ([2]; 293/PRLR/GRE-Luc cells, 72 hours, ADCs with or without cyclodextrin linkers, read-out: EC50): 8.4 nM; Maximal Activation ([2]; 293/PRLR/GRE-Luc cells, 72 hours, relative to free payload): Full (Full activation in this assay is defined between 90 and 100% of the maximal activation measured with the free payload)
(6S,8S,9S,10R,11S,13S,14S,17R)-17-(2-(4-Aminophenoxy)acetyl)-11,17-dihydroxy-6,10,13-trimethyl-6,7,8,9,10,11,12,13,14,15,16,17-dodecahydro-3H-cyclopenta[a]phenanthren-3-one [Compound 6-VI] | – | – | – | HEK293/9xUAS-Luc2P/pBind-GR/PRLR-HA high cells activation relative to Budesonide [2]: Full; EC50 ([2]; read-out: HEK293/9xUAS-Luc2P/pBind-GR/PRLR-HA high cells EC50): < 10 nM
